Type in all cases: cell-based
Experiment [1] has as its system Taxus chinensis cells. As to the kind of experiment: Effect of silver nitrate and 6-EII on taxane production (14 days). Particulars: silver as nitrate salt or thiosulfate complex. The source says:
Taxus chinensis cells were cultivated as callus and then as suspended cells on growth medium (Table B, Medium A) according to the methods described above in Examples 1 and 2. After seven days of cultivation in this medium, the suspended cells were substantially separated from this medium and placed at ca. 20% (w/v) fresh cells into Medium B (Table B) at an initial pH of 5.8. In addition to the components listed in Table B, 20 micromol/l NAA, 20 micromol/l MDCA, 5 mmol/l GLN, MJS or 6-EII and silver as a nitrate salt or thiosulfate complex were added to the medium at various levels. The gas phase was controlled to oxygen at 90-97% of the levels in air and CO2 at 2.5-6%; the temperature was held at 25±2 degrees Celsius. The cells were cultivated in the dark and were agitated at 150-200 rpm for the duration of the experiment. After 14 days of cultivation in production medium, the culture was harvested for taxanes.

In experiment [2] the test system is Taxus chinensis cells. As to the kind of experiment: Effect of 6-EII in combination with other medium ingredients on taxane yield (14 days). The protocol:
This experiment was carried out according to the following parameters. Taxus chinensis cells were cultivated as callus and then as suspended cells on growth Medium A (Table B), according to the methods described above. After seven days of cultivation in this medium, the suspended cells were substantially separated from this medium and placed at approximately 20% (w/v) fresh cells into a basal production medium (Medium B, Table B) with an initial pH of 5.8. In addition to the components listed in Medium B, the medium additionally comprised 5 millimol/l glutamine. The gas phase was controlled to oxygen at 90-97% of the value in air and 2.5-6% CO2; the temperature was held at 25±2 degrees Celsius. The cells were cultivated in the dark and were agitated at 150-200 rpm for the duration of the experiment. After 14 days of cultivation in production medium, the culture was harvested for taxanes.

The next experiment deals with Taxus cells. Description: Batch addition of 6-EII in combination with other medium components, taxane production. The following applies: batch mode. The protocol: Taxus cells were cultivated using procedures similar to those used for Example 2. The media were composed of different combinations of 6-EII (or methyl jasmonate-MJS), NAA, SLTS, MDCA and Glutamine. All ingredients were added in a batch mode, i.e., all at once.

For experiment [3], the system named is Taxus chinensis cells. As to the kind of experiment: Fed batch addition of 6-EII, taxane production in Taxus chinensis suspension culture (12 days). Particulars: for Baccatin III / Paclitaxel: harvest after 12 days in production medium; for Total: total taxanes, harvest after 12 days. The source says:
The medium also contains an indanoyl amide as described in the present application, optionally in combination with one or more jasmonic acid-related substance, and these materials may be added at the beginning of the culture, after the exponential growth phase, or intermittantly throughout the culture period. The other ingredients of the medium may be added all at one time or at different times during the cultivation and may be fed continuously or intermittently. The ingredients may be added either before or after the inclusion of plant cells in the culture broth. Further, nutrients or other ingredients may be additionally added during cultivation, if deemed useful. Optionally, the medium may be changed after a suitable period of cultivation whereby the cells are freshly exposed to a medium containing similar ingredients as described above. Such changes could involve changes to the amounts of sugars such as glucose, fructose, sucrose, maltose, etc., nitrogen sources such as nitrate, ammonium, or amino acids or casamino acids, etc. After a period of cultivation, the culture is harvested and the levels of taxanes are quantified using HPLC and specific taxanes are identified using LC/MS/MS. Taxanes can be recovered from these cultures by appropriate extraction and purification procedures. For Experiments 2-8, Taxus cells were cultivated as callus cultures on solid medium and then further cultivated as suspensions of cell aggregates in liquid medium. Although taxanes can be produced by cultivation on solid medium, the use of liquid medium is preferred. The temperature of cultivation was controlled between 20 and 30 degrees Celsius. This experiment was carried out according to the following parameters. […] Taxus chinensis cells were cultivated as callus and then as suspended cells in growth medium (Medium A shown in Table B) containing 1% maltose and B5 salts according to the methods described above. After seven days of cultivation in this medium, the suspended cells were substantially separated from this medium and placed at about 20% (w/v) fresh cells into a production medium consisting of about 20% (v/v) spent growth medium and 80% (v/v) basal production medium (Medium B shown in Table B, but 1.25-fold concentrated) with an initial pH of 5.8 and containing 20 micromol/l MDCA and 50 micromol/l SLTS (Silver Thiosulfate). […] The gas phase was controlled to 25% oxygen and 4.5% CO2 (balance nitrogen) and the temperature was held at 25±2 degrees Celsius. The cells were cultivated in the dark and were agitated at 100-150 rpm for the duration of the experiment. After 12 days of cultivation in production medium, the culture was harvested for taxanes.

Where [4] appears, read: cumulative 12-day fed batch dose 20 micromol/l.
The mark [5] stands for this setting: cumulative 12-day fed batch dose 50 micromol/l.
Setting [6] is: cumulative 12-day fed batch dose 75 micromol/l.
[7] abbreviates: cumulative 12-day fed batch dose 100 micromol/l.

Consider one substance from patent US20050221456A1, “Use of indanoyl amide to stimulate secondary metabolism in Taxus sp” (Phyton Biotech, Inc., priority 2004, published 2005).

Take 6-ethyl-indanoyl-isoleucine [6-EII]: the “interaction with silver on taxane production” value in the experiment on Taxus chinensis cells [1] is given as “act synergistically”. In the experiment on Taxus chinensis cells [2] (6-EII 5-500 micromol/l, by itself), the “taxane yield, 6-EII by itself” value is “increase in taxane yield”. In addition, the “taxane yield, combined with NAA” value in the experiment with Taxus chinensis cells [2] (6-EII with 20 micromol/l NAA) is given as “yield improved by a significantly higher amount”. In addition, the “taxane yield, combined with NAA and silver” value in the experiment on Taxus chinensis cells [2] (6-EII with 20 micromol/l NAA and 50 micromol/l silver (thiosulfate complex)) was “yield further increased”. In addition, in the experiment on Taxus chinensis cells [2] (6-EII with 20 micromol/l NAA, 50 micromol/l silver and 20 micromol/l MDCA), the “taxane yield, combined with NAA, silver and MDCA” value is “yield increased even further”. Further, the “activity in improving taxane production compared with MJS” value in the experiment with Taxus cells (all ingredients added at once) is “comparable activity in improving taxane production”. For the same substance, in the experiment on Taxus cells (combined with NAA), the “interaction with auxin-type growth regulator NAA on taxane production” value is “interact positively to improve taxane production”. Further, in the experiment on Taxus cells (combined with glutamine), the “interaction with glutamine on taxane production” value was “interact favorably to improve taxane production”. Also, in the experiment with Taxus cells (combined with silver (SLTS)), the “interaction with silver on overall production of taxanes” value was “works synergistically with silver to increase overall production of taxanes”. In the experiment on Taxus cells (with silver), the “effect on baccatin-III versus paclitaxel production” value is “improve baccatin-III production without reducing the amount of paclitaxel produced”. For the same substance, the “activity on taxane production compared with methyl jasmonate” value in the experiment on Taxus chinensis cells [3] (12-day fed batch treatment) was “comparable activity”. The “Baccatin III” value in the experiment with Taxus chinensis cells [3] (setting [4]) came out at 159 mg/L; in the experiment with Taxus chinensis cells [3] (setting [5]) it was 358 mg/L; in the experiment on Taxus chinensis cells [3] (setting [6]) it was 605 mg/L; with Taxus chinensis cells [3] (setting [7]) it was 616 mg/L. Besides, the Paclitaxel was 443 mg/L in the experiment on Taxus chinensis cells [3] (setting [4]), 495 mg/L with Taxus chinensis cells [3] (setting [5]), 556 mg/L in the experiment with Taxus chinensis cells [3] (setting [6]) and 557 mg/L in the experiment on Taxus chinensis cells [3] (setting [7]). Further, the Total worked out at 694 mg/L in the experiment with Taxus chinensis cells [3] (setting [4]), 1301 mg/L in the experiment with Taxus chinensis cells [3] (setting [5]), 1693 mg/L in the experiment with Taxus chinensis cells [3] (setting [6]) and 1702 mg/L with Taxus chinensis cells [3] (setting [7]).
